Experimental data as given in patent US20260285850A1, “SUBSTITUTED OXAZOLIDINONES AND IMIDAZOLINONES AS HERBICIDES” (FMC CORPORATION, priority 2023, published 2026).

What was measured:
Format in all cases: in vivo
[1] = tested on: barnyardgrass (Echinochloa crus-galli); test: Test A preemergence soil spray, visual injury rating 0-100; conditions: 10 days
How it was run: (§1)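 Compound in a non-phytotoxic, surfactant-containing solvent is applied either as a directed soil spray before seedlings emerge or onto emerged plants 2-10 cm tall; pots hold a loam-sand blend. Plants grow 10 days under greenhouse conditions and are rated by eye against untreated controls (0 no effect, 100 complete control).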

[2] = tested on: blackgrass (Alopecurus myosuroides); test: as above; conditions: 10 days
How it was run: as §1

corn (Zea mays) [3] = test: as above; conditions: 10 days
How it was run: as §1

[4] = tested on: green foxtail (Setaria viridis); test: as above; conditions: 10 days
How it was run: as §1

kochia (Bassia scoparia) [5] = test: as above; conditions: 10 days
How it was run: as §1

[6] = tested on: oat, wild (wild oat, Avena fatua); test: as above; conditions: 10 days
How it was run: as §1

[7] = tested on: palmer (palmer amaranth, palmer pigweed, Amaranthus palmeri); test: as above; conditions: 10 days
How it was run: as §1

[8] = tested on: ragweed (common ragweed, Ambrosia artemisiifolia); test: as above; conditions: 10 days
How it was run: as §1

[9] = tested on: ryegrass, Italian (italian ryegrass, Lolium multiflorum); test: as above; conditions: 10 days
How it was run: as §1

soybean (Glycine max) [10] = test: as above; conditions: 10 days
How it was run: as §1

[11] = tested on: wheat (Triticum aestivum); test: as above; conditions: 10 days
How it was run: as §1

[12] = tested on: barnyardgrass (Echinochloa crus-galli); test: Test A postemergence application, visual injury rating 0-100
How it was run: as §1

[13] = tested on: blackgrass (Alopecurus myosuroides); test: as above
How it was run: as §1

corn (Zea mays) [14] = test: as above
How it was run: as §1

[15] = tested on: galium (catchweed bedstraw, Galium aparine); test: as above
How it was run: as §1

[16] = tested on: green foxtail (Setaria viridis); test: as above
How it was run: as §1

[17] = tested on: horseweed (Erigeron canadensis); test: as above
How it was run: as §1

kochia (Bassia scoparia) [18] = test: as above
How it was run: as §1

[19] = tested on: oat, wild (wild oat, Avena fatua); test: as above
How it was run: as §1

[20] = tested on: palmer (palmer amaranth, palmer pigweed, Amaranthus palmeri); test: as above
How it was run: as §1

[21] = tested on: ragweed (common ragweed, Ambrosia artemisiifolia); test: as above
How it was run: as §1

[22] = tested on: ryegrass, Italian (italian ryegrass, Lolium multiflorum); test: as above
How it was run: as §1

soybean (Glycine max) [23] = test: as above
How it was run: as §1

[24] = tested on: wheat (Triticum aestivum); test: as above
How it was run: as §1

[25] = tested on: barnyardgrass (Echinochloa crusgalli); test: Test B flooded paddy test, visual plant response rating 0-100; conditions: 250 g ai/ha, Flood, applied to paddy water, evaluated after 13 days
How it was run: (§2)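 In this flooded assay, 2-leaf seedlings received compound through the water layer, kept at 3 cm over the soil. Plants were held 13 days in a greenhouse and then visually compared with control pots.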

[26] = tested on: ducksalad (Heteranthera limosa); test: as above; conditions: 250 g ai/ha, Flood, applied to paddy water, evaluated after 13 days
How it was run: as §2

rice (Oryza sativa) = test: as above; conditions: 250 g ai/ha, Flood, applied to paddy water, evaluated after 13 days
How it was run: as §2

[27] = tested on: sedge, umbrella (small-flower umbrella sedge, Cyperus difformis); test: as above; conditions: 250 g ai/ha, Flood, applied to paddy water, evaluated after 13 days
How it was run: as §2

[28] = 62 g ai/ha, 0 = no effect, 100 = complete control
[29] = 62 g ai/ha, postemergence, 10 days, 0 = no effect, 100 = complete control
[30] = Postemergence, 16 g ai/ha, greenhouse 10 days, 0 no effect, 100 complete control

With CC1(C(=O)NC2CC=C(C(=O)OCC(F)(F)F)C2)CN(c2cc(Cl)cc(Cl)c2)C(=O)O1 (stereo not shown) [Compound 96] the “Barnyardgrass plant response rating” value ([1]; 16 g ai/ha, 0 to 100 scale) was 10, the “Barnyardgrass plant response rating (0-100)” value [1, 28] was 60 and the “Blackgrass plant response rating” value ([2]; 16 g ai/ha, 0 to 100 scale) was 0. The “Blackgrass plant response rating (0-100)” value [2, 28] was 0, the “Corn plant response rating” value (corn (Zea mays) [3]; 16 g ai/ha, 0 to 100 scale) was 0 and the “Corn plant response rating (0-100)” value (corn (Zea mays) [3]; [28]) was 40. The “Foxtail, Green plant response rating” value ([4]; 16 g ai/ha, 0 to 100 scale) was 10, the “Foxtail, Green plant response rating (0-100)” value [4, 28] was 90 and the “Kochia plant response rating” value (kochia (Bassia scoparia) [5]; 16 g ai/ha, 0 to 100 scale) was 0. For the same compound, the “Kochia plant response rating (0-100)” value (kochia (Bassia scoparia) [5]; [28]) was 0, the “Oat, Wild plant response rating” value ([6]; 16 g ai/ha, 0 to 100 scale) was 0 and the “Oat, Wild plant response rating (0-100)” value [6, 28] was 20. For the same compound, the “Pigweed, Palmer plant response rating” value ([7]; 16 g ai/ha, 0 to 100 scale) was 100, the “Pigweed, Palmer plant response rating (0-100)” value [7, 28] was 90 and the “Ragweed plant response rating” value ([8]; 16 g ai/ha, 0 to 100 scale) was 0. The “Ragweed plant response rating (0-100)” value [8, 28] was 0, the “Ryegrass, Italian plant response rating” value ([9]; 16 g ai/ha, 0 to 100 scale) was 20 and the “Ryegrass, Italian plant response rating (0-100)” value [9, 28] was 60. The “Soybean plant response rating” value (soybean (Glycine max) [10]; 16 g ai/ha, 0 to 100 scale) was 10, the “Soybean plant response rating (0-100)” value (soybean (Glycine max) [10]; [28]) was 30 and the “Wheat plant response rating” value ([11]; 16 g ai/ha, 0 to 100 scale) was 0. For the same compound, the “Wheat plant response rating (0-100)” value [11, 28] was 0, the “Barnyardgrass plant response rating (0-100)” value [12, 29] was 100 and the “Barnyardgrass plant response rating (0 to 100 scale)” value [12, 30] was 100. The “Blackgrass plant response rating (0-100)” value [13, 29] was 90, the “Blackgrass plant response rating (0 to 100 scale)” value [13, 30] was 80 and the “Corn plant response rating (0-100)” value (corn (Zea mays) [14]; [29]) was 100. The “Corn plant response rating (0 to 100 scale)” value (corn (Zea mays) [14]; [30]) was 100, the “Galium plant response rating (0-100)” value [15, 29] was 90 and the “Galium plant response rating (0 to 100 scale)” value [15, 30] was 70. For the same compound, the “Foxtail, Green plant response rating (0-100)” value [16, 29] was 90, the “Foxtail, Green plant response rating (0 to 100 scale)” value [16, 30] was 90 and the “Horseweed plant response rating (0-100)” value [17, 29] was 70. For the same compound, the “Horseweed plant response rating (0 to 100 scale)” value [17, 30] was 40, the “Kochia plant response rating (0-100)” value (kochia (Bassia scoparia) [18]; [29]) was 80 and the “Kochia plant response rating (0 to 100 scale)” value (kochia (Bassia scoparia) [18]; [30]) was 70. The “Oat, Wild plant response rating (0-100)” value [19, 29] was 80, the “Oat, Wild plant response rating (0 to 100 scale)” value [19, 30] was 50 and the “Pigweed, Palmer plant response rating (0-100)” value [20, 29] was 90. The “Pigweed, Palmer plant response rating (0 to 100 scale)” value [20, 30] was 70, the “Ragweed plant response rating (0-100)” value [21, 29] was 60 and the “Ragweed plant response rating (0 to 100 scale)” value [21, 30] was 40. For the same compound, the “Ryegrass, Italian plant response rating (0-100)” value [22, 29] was 90, the “Ryegrass, Italian plant response rating (0 to 100 scale)” value [22, 30] was 80 and the “Soybean plant response rating (0-100)” value (soybean (Glycine max) [23]; [29]) was 80. The “Soybean plant response rating (0 to 100 scale)” value (soybean (Glycine max) [23]; [30]) was 80, the “Wheat plant response rating (0-100)” value [24, 29] was 90 and the “Wheat plant response rating (0 to 100 scale)” value [24, 30] was 30. For the same compound, the “Plant response rating, Barnyardgrass (0 to 100 scale, 0 is no effect and 100 is complete control)” value [25] was 95, the “Plant response rating, Ducksalad (0 to 100 scale, 0 is no effect and 100 is complete control)” value [26] was 70 and the “Plant response rating, Rice (0 to 100 scale, 0 is no effect and 100 is complete control)” value (rice (Oryza sativa)) was 25. The “Plant response rating, Sedge, Umbrella (0 to 100 scale, 0 is no effect and 100 is complete control)” value [27] was 95.
